# Experimental data from paper PMC3777193, “Diaryl- and triaryl-pyrrole derivatives: inhibitors of the MDM2–p53 and MDMX–p53 protein–protein interactions” (Medchemcomm, 2013).
# Where two headings read alike, the source gives them in different places.
# Legend:
# [1] = Growth inhibitory activity, A2708 (Table S3); type: cell-based; conditions: read-out: GI50 A2708
# Text: (§1) (2 pictures or pasted objects on this page, not shown here)
# HCT116 = experiment: Growth inhibitory activity, HCT116 (Table S3); type: cell-based; conditions: Homo sapiens, HCT-116, read-out: GI50 HCT116
# Text: as §1
# MDM2–p53 = MDM2–p53 (Homo sapiens, UniProt Q00987); experiment: MDM2–p53 ELISA protein–protein binding assay; conditions: for fold loss of potency against MDM2–p53: N-alkyl malonamides compared with 10c
# Chain of MDM2–p53 (Q00987 whole entry): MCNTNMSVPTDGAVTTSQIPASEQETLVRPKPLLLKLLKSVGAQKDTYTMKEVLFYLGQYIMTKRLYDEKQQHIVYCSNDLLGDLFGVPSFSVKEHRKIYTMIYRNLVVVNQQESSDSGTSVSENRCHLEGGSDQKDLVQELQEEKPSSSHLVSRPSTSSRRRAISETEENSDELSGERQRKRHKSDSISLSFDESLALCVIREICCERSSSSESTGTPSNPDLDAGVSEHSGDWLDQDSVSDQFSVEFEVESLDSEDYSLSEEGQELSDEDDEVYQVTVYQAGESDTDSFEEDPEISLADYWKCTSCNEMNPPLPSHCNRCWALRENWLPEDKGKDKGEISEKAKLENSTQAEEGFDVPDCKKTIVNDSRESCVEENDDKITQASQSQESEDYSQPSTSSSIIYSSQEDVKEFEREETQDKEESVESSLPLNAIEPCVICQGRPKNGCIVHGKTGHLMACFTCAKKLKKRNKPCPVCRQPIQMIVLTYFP
# SJSA-1 = experiment: Growth inhibitory activity, SJSA-1; conditions: Homo sapiens, SJSA-1, read-out: GI50 SJSA-1
# Procedure: (§2) Growth inhibitory activity was determined for selected pyrroles in a panel of cell lines with defined MDM2, MDMX and p53 status (Table 5).
# A2780-CP70 = experiment: Growth inhibitory activity, A2780-CP70 (Table S3); type: cell-based; conditions: A2780/CP70, read-out: GI50 A2780-CP70
# Text: as §1
# HCT116 p53(-/-) = experiment: Growth inhibitory activity, HCT116 p53(-/-) (Table S3); type: cell-based; conditions: Homo sapiens, HCT-116, read-out: GI50 HCT116 p53(-/-)
# Text: as §1
# MDMX–p53 = molecular target: T1, MDMX–p53 (Homo sapiens, UniProt O15151); experiment: MDMX–p53 ELISA binding assay
# T1 construct: host or cells: in vitro coupled T7 transcription and rabbit reticulocyte lysate translation
# T1 sequence (O15151 1-490): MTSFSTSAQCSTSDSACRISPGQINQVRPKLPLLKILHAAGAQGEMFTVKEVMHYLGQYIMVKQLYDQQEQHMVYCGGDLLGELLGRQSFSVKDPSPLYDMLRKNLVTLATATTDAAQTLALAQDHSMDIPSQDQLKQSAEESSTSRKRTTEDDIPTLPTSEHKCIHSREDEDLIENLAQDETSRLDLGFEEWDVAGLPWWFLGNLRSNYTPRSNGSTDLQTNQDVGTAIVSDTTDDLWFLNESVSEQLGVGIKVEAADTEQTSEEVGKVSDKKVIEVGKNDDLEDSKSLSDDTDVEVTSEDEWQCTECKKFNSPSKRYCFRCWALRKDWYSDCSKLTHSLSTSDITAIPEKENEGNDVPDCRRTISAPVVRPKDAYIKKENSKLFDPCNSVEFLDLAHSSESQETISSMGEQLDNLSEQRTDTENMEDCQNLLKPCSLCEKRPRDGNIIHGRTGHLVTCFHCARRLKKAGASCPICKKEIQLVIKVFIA
# MRK-NU-1 = experiment: Growth inhibitory activity, MRK-NU-1; conditions: Homo sapiens, MRK-nu-1, read-out: GI50 MRK-NU-1
# Procedure: as §2
# SN40R2 = experiment: Growth inhibitory activity, SN40R2; conditions: read-out: GI50 SN40R2
# Procedure: as §2
# [2] = Table 3, n = 3 (b n = 5), read-out: MDM2 IC50
# [3] = Table 3, n = 3 (c n = 1), read-out: MDMX IC50
compound,measurement,setting,value
Cc1cc(C=C2C(=O)NC(=S)NC2=O)c(C)n1-c1ccc(Cl)cc1 [Compound 4a],GI50,[1],3.4 ± 0.2 µM
same,GI50,HCT116,8.4 ± 0.5 µM
same,IC50,MDM2–p53; read-out: MDM2 IC50,0.72 ± 0.1 µM
same,GI50,SJSA-1,3.3 ± 0.1 µM
same,GI50,A2780-CP70,4.4 ± 0.2 µM
same,GI50,HCT116 p53(-/-),8.3 ± 0.4 µM
Cc1cc(/C=C2\C(=O)NC(=S)N(c3ccccc3)C2=O)c(C)n1-c1ccc(Cl)cc1 [Compound 4b],GI50,[1],8.4 ± 0.2 µM
same,GI50,HCT116,9.5 ± 0.3 µM
same,IC50,MDM2–p53; read-out: MDM2 IC50,3.3 ± 0.7 µM
same,GI50,SJSA-1,7.6 ± 0.1 µM
same,GI50,A2780-CP70,9.5 ± 0.1 µM
same,GI50,HCT116 p53(-/-),9.9 ± 0.1 µM
O=C1NC(=S)N(c2cccc(Cl)c2)C(=O)/C1=C/c1cc(-c2ccccc2)n(-c2ccc(Cl)cc2)c1-c1ccccc1 [Compound 4e],IC50,MDM2–p53; read-out: MDM2 IC50,0.163 ± 0.017 µM
Cc1ccc(N2C(=O)/C(=C\c3cc(-c4ccccc4)n(-c4ccc(Cl)cc4)c3-c3ccccc3)C(=O)N(c3ccccc3)C2=S)cc1C [Compound 4f],IC50,MDM2–p53; read-out: MDM2-p53 IC50,0.26 ± 0.04 µM
same,IC50,MDM2–p53; read-out: MDM2 IC50,0.256 ± 0.039 µM
CN1C(=O)C(=Cc2cc(-c3ccccc3)n(-c3ccc(Cl)cc3)c2-c2ccccc2)C(=O)N(C)C1=S [Compound 4g],MDM2-p53 IC50,MDM2–p53,Insol.
same,MDM2 IC50,MDM2–p53,Insol.
Cc1cc(C=C2C(=O)N(c3ccccc3)C(=S)N(c3ccccc3)C2=O)c(C)n1-c1ccc(Br)cc1 [Compound 4h],IC50,MDM2–p53; read-out: MDM2 IC50,0.199 ± 0.016 µM
Cc1ccc(-n2c(C)cc(/C=C3\C(=O)NC(=S)N(c4ccccc4)C3=O)c2C)cc1 [Compound 4i],GI50,[1],7.5 ± 0.1 µM
same,GI50,HCT116,9.5 ± 0.3 µM
same,IC50,MDM2–p53; read-out: MDM2 IC50,8.4 ± 0.9 µM
same,GI50,SJSA-1,7.1 ± 0.1 µM
same,GI50,A2780-CP70,9 ± 0.4 µM
same,GI50,HCT116 p53(-/-),9.7 ± 0.2 µM
Cc1ccc(-n2c(C)cc(C=C3C(=O)NC(=S)NC3=O)c2C)cc1 [Compound 4j],IC50,MDM2–p53; read-out: MDM2 IC50,4.7 ± 0.2 µM
CCOC(=O)c1ccc(-n2c(-c3ccccc3)cc(C=C3C(=O)NC(=S)NC3=O)c2-c2ccccc2)cc1 [Compound 4k],IC50,MDM2–p53; read-out: MDM2 IC50,0.7 ± 0.02 µM
O=C1NC(=O)C(=Cc2cc(-c3ccccc3)n(-c3ccc(Cl)cc3)c2-c2ccccc2)C(=O)N1 [Compound 4m],IC50,MDM2–p53; read-out: MDM2 IC50,0.3 ± 0.03 µM
O=C1NC(=O)C(=Cc2cc(-c3ccccc3)n(-c3ccc(Br)cc3)c2-c2ccccc2)C(=O)N1 [Compound 4n],IC50,MDM2–p53; read-out: MDM2 IC50,0.18 ± 0.07 µM
COc1ccc(-n2c(-c3ccccc3)cc(C=C3C(=O)NC(=O)NC3=O)c2-c2ccccc2)cc1 [Compound 4o],IC50,MDMX–p53; read-out: MDMX IC50,13 ± 7 µM
same,IC50,MDM2–p53; read-out: MDM2 IC50,1.9 ± 0.3 µM
CC(C)(C)c1ccc(-n2c(-c3ccccc3)cc(C=C3C(=O)NC(=O)NC3=O)c2-c2ccccc2)cc1 [Compound 4p],IC50,MDM2–p53; read-out: MDM2 IC50,1.9 ± 0.3 µM
N#Cc1ccc(-n2c(-c3ccccc3)cc(C=C3C(=O)NC(=O)NC3=O)c2-c2ccccc2)cc1 [Compound 4q],IC50,MDMX–p53; read-out: MDMX IC50,7 ± 3 µM
same,IC50,MDM2–p53; read-out: MDM2 IC50,4.7 ± 1.9 µM
N#Cc1ccc(-n2c(-c3ccccc3)cc(C=C3C(=O)NC(=S)NC3=O)c2-c2ccccc2)cc1 [Compound 4r],IC50,MDMX–p53; read-out: MDMX IC50,0.9 ± 0.42 µM
same,GI50,MRK-NU-1,6.1 ± 0.7 µM
same,GI50,SN40R2,5.9 ± 0.3 µM
same,IC50,MDM2–p53; read-out: MDM2 IC50,0.2 ± 0.07 µM
same,GI50,SJSA-1,5.1 ± 0.9 µM
"O=C1NC(=O)C(=Cc2cc(-c3ccccc3)n(-c3ccc([N+](=O)[O-])cc3)c2-c2ccccc2)C(=O)N1 [Compound 4s, 5-((1-(4-nitrophenyl)-2,5-diphenyl-1H-pyrrol-3-yl)methylene)pyrimidine-2,4,6(1H,3H,5H)-trione]",IC50,MDMX–p53; read-out: MDMX IC50,0.68 ± 0.18 µM
same,IC50,MDM2–p53; read-out: MDM2 IC50,0.15 ± 0.06 µM
O=C1NC(=S)NC(=O)C1=Cc1cc(-c2ccccc2)n(-c2ccc([N+](=O)[O-])cc2)c1-c1ccccc1 [Compound 4t],IC50,MDMX–p53; read-out: MDMX IC50,0.63 ± 0.12 µM
same,GI50,MRK-NU-1,4.9 ± 0.6 µM
same,GI50,SN40R2,5.2 ± 0.4 µM
same,IC50,MDM2–p53; read-out: MDM2 IC50,0.17 ± 0.09 µM
same,GI50,SJSA-1,4.7 ± 1 µM
CCN1C(=O)C(=Cc2cc(-c3ccccc3)n(-c3ccc(Cl)cc3)c2-c2ccccc2)C(=O)N(CC)C1=S [Compound 4u],fold less potent against MDM2 compared with unsubstituted analogues,MDM2–p53,3–4 fold
same,IC50,MDM2–p53; read-out: MDM2 IC50,0.3 ± 0.12 µM
CCN1C(=O)C(=Cc2cc(-c3ccccc3)n(-c3ccc(Br)cc3)c2-c2ccccc2)C(=O)N(CC)C1=O [Compound 4v],inhibition at 50 µM,MDMX–p53; read-out: MDMX % inhibition at 50 μM,74%
same,fold less potent against MDM2 compared with unsubstituted analogues,MDM2–p53,3–4 fold
same,IC50,MDM2–p53; read-out: MDM2 IC50,0.89 ± 0.04 µM
CCN1C(=O)C(=Cc2cc(-c3ccccc3)n(-c3ccc(Br)cc3)c2-c2ccccc2)C(=O)N(CC)C1=S [Compound 4w],IC50,MDM2–p53; read-out: MDM2 IC50,0.26 ± 0.05 µM
CN1C(=O)C(=Cc2cc(-c3ccccc3)n(-c3ccc(Cl)cc3)c2-c2ccccc2)C(=O)NC1=S [Compound 4x],IC50,MDMX–p53,28 ± 23 µM
same,GI50,MRK-NU-1,7 ± 1 µM
same,GI50,SN40R2,6.3 ± 0.4 µM
same,IC50,MDM2–p53,0.11 ± 0.02 µM
same,GI50,SJSA-1,5.5 ± 0.6 µM
CN1C(=O)NC(=O)C(=Cc2cc(-c3ccccc3)n(-c3ccc(Br)cc3)c2-c2ccccc2)C1=O [Compound 4y],IC50,MDMX–p53,35 ± 20 µM
same,IC50,MDM2–p53,0.34 ± 0.08 µM
CN1C(=O)C(=Cc2cc(-c3ccccc3)n(-c3ccc(Br)cc3)c2-c2ccccc2)C(=O)NC1=S [Compound 4z],IC50,MDM2–p53,0.073 ± 0.002 µM
CC1(C)OC(=O)C(=Cc2cc(-c3ccccc3)n(-c3ccc(Br)cc3)c2-c2ccccc2)C(=O)O1 [Compound 7],fold less potent than 8c against MDM2–p53,MDM2–p53,> 100 fold
same,IC50,MDM2–p53; [2],17 ± 4 µM
CC1(C)OC(=O)C(Cc2cc(-c3ccccc3)n(-c3ccc(Br)cc3)c2-c2ccccc2)C(=O)O1 [Compound 9],fold less potent than 8c against MDM2–p53,MDM2–p53,20 fold
same,IC50,MDM2–p53; [2],2.9 ± 0.7 µM
COC(=O)C(=Cc1cc(-c2ccccc2)n(-c2ccc(Cl)cc2)c1-c1ccccc1)C(=O)OC [Compound 10a],IC50,MDMX–p53; [3],> 50 µM
same,activity against MDM2–p53 in words,MDM2–p53,essentially inactive
same,IC50,MDM2–p53; [2],> 50 µM
O=C(O)C(=Cc1cc(-c2ccccc2)n(-c2ccc(Cl)cc2)c1-c1ccccc1)C(=O)O [Compound 10b],IC50,MDMX–p53; [3],> 50 µM
same,activity against MDM2–p53 in words,MDM2–p53,modest activity
same,IC50,MDM2–p53; [2],2.9 ± 0.2 µM
NC(=O)C(=Cc1cc(-c2ccccc2)n(-c2ccc(Cl)cc2)c1-c1ccccc1)C(N)=O [Compound 10c],IC50,MDMX–p53; [3],30 µM
same,IC50,MDM2–p53; [2],2.5 ± 0.2 µM
CNC(=O)C(=Cc1cc(-c2ccccc2)n(-c2ccc(Cl)cc2)c1-c1ccccc1)C(=O)NC [Compound 10d],IC50,MDMX–p53; [3],30 µM
same,fold loss of potency against MDM2–p53,MDM2–p53,3 fold
same,IC50,MDM2–p53; [2],7.6 ± 0.4 µM
O=C(NCCO)C(=Cc1cc(-c2ccccc2)n(-c2ccc(Cl)cc2)c1-c1ccccc1)C(=O)NCCO [Compound 10e],IC50,MDMX–p53; [3],42 µM
same,fold loss of potency against MDM2–p53,MDM2–p53,6 fold
same,IC50,MDM2–p53; [2],15 ± 3 µM
O=C(O)/C=C/c1cc(-c2ccccc2)n(-c2ccc(Cl)cc2)c1-c1ccccc1 [Compound 10f],activity against MDMX–p53 in words,MDMX–p53,inactive
same,IC50,MDMX–p53; [3],> 50 µM
same,activity against MDM2–p53 in words,MDM2–p53,only weakly active
same,IC50,MDM2–p53; [2],17 ± 3 µM
CC(C)(C)c1cc(C=C2C(=O)NC(=S)NC2=O)c(-c2ccccc2)n1-c1ccc(Br)cc1 [Compound 11b],fold loss of potency for MDMX,MDMX–p53,> 200 fold
same,IC50,MDMX–p53; read-out: MDMX IC50,963 µM
same,IC50,MDM2–p53; read-out: MDM2 IC50,0.76 ± 0.27 µM
CC(C)(C)c1cc(C=C2C(=O)NC(=S)NC2=O)c(-c2ccccc2)n1-c1ccc(Cl)cc1 [Compound 11c],fold loss of potency for MDMX,MDMX–p53,> 200 fold
same,IC50,MDMX–p53; read-out: MDMX IC50,1680 µM
same,IC50,MDM2–p53; read-out: MDM2 IC50,1.1 ± 0.7 µM
O=C1NC(=S)NC(=O)C1=Cc1cc(-c2ccccc2)n(-c2ccc(Cl)cc2)c1C1CC1 [Compound 11d],IC50,MDMX–p53; read-out: MDMX IC50,3490 µM
same,IC50,MDM2–p53; read-out: MDM2 IC50,1.6 ± 1.7 µM
O=C1NC(=S)NC(=O)C1=Cc1cc(-c2ccccc2)n(-c2ccc(Br)cc2)c1C1CC1 [Compound 11e],IC50,MDMX–p53; read-out: MDMX IC50,3430 µM
same,IC50,MDM2–p53; read-out: MDM2 IC50,1.6 ± 1.6 µM
O=C1NC(=S)NC(=O)C1=Cc1cc(C2CC2)n(-c2ccc(Cl)cc2)c1-c1ccccc1 [Compound 11f],IC50,MDMX–p53; read-out: MDMX IC50,4920 µM
same,IC50,MDM2–p53; read-out: MDM2 IC50,2.1 ± 2.7 µM
O=C1NC(=S)NC(=O)C1=Cc1cc(C2CC2)n(-c2ccc(Br)cc2)c1-c1ccccc1 [Compound 11g],IC50,MDMX–p53; read-out: MDMX IC50,5320 µM
same,IC50,MDM2–p53; read-out: MDM2 IC50,2.2 ± 2.7 µM
